Assay results: patent US20100179203A1, “NOVEL PYRAZOLE DERIVATIVES USEFUL AS POTASSIUM CHANNEL MODULATORS” (priority 2007, published 2010)

Assays:
BK channels = target: T1, BK channels (Homo sapiens, UniProt Q12791); assay: BK channel opening activity, two-electrode voltage clamp in Xenopus laevis oocytes; format: cell-based
T1 construct: expressed in transfected cells; host or cells: Xenopus laevis oocytes
Description: In this example the BK channel opening activity of Compound 9 (FIGS. 1A and 1B) is determined using BK channels heterologously expressed in Xenopus laevis oocytes.
The electrical current through the BK channel was measured using conventional two-electrode voltage clamp. BK currents were activated by repeating ramp protocols. In brief, the membrane potential was continuously changed from −120 mV to +120 mV within a 2 s period. The threshold for BK activation is approximately +30 mV under control conditions. Compounds were applied for 100 s during which the ramp protocol was repeated 10 times with 10 s intervals. In between the ramp protocols the membrane potential was clamped at −80 mV. The first three compound applications were control blanks where the current level is allowed to stabilize.
In order to evaluate the ability of the compounds to shift the BK activation curve towards lower membrane potentials, the BK current was transformed into conductance by using Ohm's law […], where g is the conductance, I is the current, Ememb is the membrane potential and Erev is the reversal potential. The extracellular solution for these experiments contained 2.5 mM K+ and the intracellular K+ concentration of an oocyte was estimated to be 100 mM. Under those conditions, Nernst equation predicts a reversal potential of Erev=−93.2 mV. The control conductance level at a membrane potential of +100 mV was calculated, and the compound effect was evaluated as the potential difference, ΔV, to the membrane potential at which the same conductance level was obtained in the presence of compound.
The concentration response curve for this potential difference was fitted to the sigmoidal logistic equation: ΔV=ΔVmax/(1+(EC50/[compound])^n), where ΔVmax represents the maximal left shift of the BK activation curve, EC50 is the concentration causing a half maximal response, and n is the slope coefficient.

T1 sequence (Q12791 whole entry): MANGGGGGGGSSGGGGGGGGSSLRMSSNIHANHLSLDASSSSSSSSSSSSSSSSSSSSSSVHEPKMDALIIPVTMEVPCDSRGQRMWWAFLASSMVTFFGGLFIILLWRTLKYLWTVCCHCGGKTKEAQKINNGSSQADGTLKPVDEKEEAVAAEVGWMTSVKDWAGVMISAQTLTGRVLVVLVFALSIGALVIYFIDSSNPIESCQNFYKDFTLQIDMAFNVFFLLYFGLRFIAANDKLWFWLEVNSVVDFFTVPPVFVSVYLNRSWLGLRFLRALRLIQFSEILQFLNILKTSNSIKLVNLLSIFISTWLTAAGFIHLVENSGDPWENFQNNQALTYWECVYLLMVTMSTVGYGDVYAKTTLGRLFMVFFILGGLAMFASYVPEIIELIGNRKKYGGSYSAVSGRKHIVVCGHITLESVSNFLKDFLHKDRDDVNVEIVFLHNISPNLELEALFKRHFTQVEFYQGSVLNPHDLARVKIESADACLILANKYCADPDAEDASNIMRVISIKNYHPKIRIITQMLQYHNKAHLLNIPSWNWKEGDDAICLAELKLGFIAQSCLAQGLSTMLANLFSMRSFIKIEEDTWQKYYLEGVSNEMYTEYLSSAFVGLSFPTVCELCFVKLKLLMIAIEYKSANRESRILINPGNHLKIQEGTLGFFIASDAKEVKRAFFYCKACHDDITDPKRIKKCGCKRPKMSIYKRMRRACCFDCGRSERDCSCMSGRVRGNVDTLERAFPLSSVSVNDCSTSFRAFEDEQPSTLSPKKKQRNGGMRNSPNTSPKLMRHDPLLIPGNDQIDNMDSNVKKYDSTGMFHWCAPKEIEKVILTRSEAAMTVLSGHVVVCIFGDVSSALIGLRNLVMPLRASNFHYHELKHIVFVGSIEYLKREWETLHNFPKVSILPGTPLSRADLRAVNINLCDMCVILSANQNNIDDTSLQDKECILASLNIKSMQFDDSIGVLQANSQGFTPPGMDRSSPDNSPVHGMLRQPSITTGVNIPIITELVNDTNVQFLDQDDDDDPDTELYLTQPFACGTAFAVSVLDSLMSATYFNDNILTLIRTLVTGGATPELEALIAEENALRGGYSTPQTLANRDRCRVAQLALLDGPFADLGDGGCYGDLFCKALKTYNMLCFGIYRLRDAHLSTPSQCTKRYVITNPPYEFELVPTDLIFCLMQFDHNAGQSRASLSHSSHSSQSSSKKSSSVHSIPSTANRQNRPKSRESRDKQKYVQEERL

SMILES | melting point [°C] | further results
COc1ccc(-n2cc(/C=C/c3nnn[nH]3)c(-c3ccc(Cl)c(F)c3)n2)cc1Cl [Compound 5, 5-{(E)-2-[3-(4-Chloro-3-fluorophenyl)-1-(3-chloro-4-methoxy-phenyl)-1H-pyrazol-4-yl]-vinyl}-1H-tetrazole] | 128.4 to 130 | –
Clc1ccc(-c2nn(-c3ccc(Br)cc3)cc2CCc2nnn[nH]2)cc1 [Compound 9, 5-{2-[1-(4-Bromo-phenyl)-3-(4-chloro-phenyl)-1H-pyrazol-4-yl]-ethyl}-1H-tetrazole] | – | EC50 (BK channels; BK channels heterologously expressed in Xenopus laevis oocytes, ramp -120 to +120 mV, 0.01-31.6 μM, fit of ΔV vs concentration, read-out: EC50 for the left-shift of the BK activation curve): 1400 nM; ΔVmax, maximal left shift of the BK activation curve (BK channels; BK channels heterologously expressed in Xenopus laevis oocytes, ΔV referred to control conductance at +100 mV, 0.01-31.6 μM): −96 mV; BK current level at depolarizing potentials (BK channels; increasing concentrations (0.01-31.6 μM) applied, Xenopus laevis oocytes): marked increase in the current level
COc1ccc(-n2cc(/C=C(\C#N)C(=O)O)c(-c3ccc(Cl)c(F)c3)n2)cc1Cl [Compound 14, (E)-3-[3-(4-Chloro-3-fluoro-phenyl)-1-(3-chloro-4-methoxy-phenyl)-1H-pyrazol-4-yl]-2-cyano-acrylic acid] | 282.8 to 284.2 | –
COc1ccc(-n2cc(/C=C/C(=O)NS(C)(=O)=O)c(-c3ccc(Cl)c(F)c3)n2)cc1Cl [Compound 6, N-{(E)-3-[3-(4-Chloro-3-fluoro-phenyl)-1-(3-chloro-4-methoxy-phenyl)-1H-pyrazol-4-yl]-acryloyl}-methanesulfonamide] | 269.3 to 270.5 | –
COc1ccc(-n2cc(/C=C/C(=O)O)c(-c3ccc(Cl)c(F)c3)n2)cc1Cl [Compound 3, (E)-3-[3-(4-Chloro-3-fluoro-phenyl)-1-(3-chloro-4-methoxy-phenyl)-1H-pyrazol-4-yl]-acrylic acid] | 240.2 to 241.3 | –

Second part, led by results:

melting point [°C] | SMILES | further results
200 to 201 | O=c1[nH]c(Cc2cn(-c3cc(C(F)(F)F)cc(C(F)(F)F)c3)nc2-c2cccc(Cl)c2)no1 [Compound 17, 3-[1-(3,5-Bis-trifluoromethyl-phenyl)-3-(3-chloro-phenyl)-1H-pyrazol-4-ylmethyl]-4H-[1,2,4]oxadiazol-5-one] | –
216.8 to 218.2 | COc1ccc(-n2cc(CC(=O)NS(C)(=O)=O)c(-c3ccc(Cl)c(F)c3)n2)cc1Cl [Compound 18, N-{2-[3-(4-Chloro-3-fluorophenyl)-1-(3-chloro-4-methoxy-phenyl)-1H-pyrazol-4-yl]-acetyl}-methanesulfonamide] | –
